Where a name gives a salt, the structure may show the parent alone.
What was measured:
[1] = human, in vivo
[2] = off-label, doses 10 times lower than the standard dosage; cited from earlier work
[3] = molecular target: D2 (Homo sapiens, UniProt P14416); settings: cited from earlier work
[4] = tested on: muscarinic receptors; settings: cited from earlier work
[5] = Initial treatment of patients with atypical HUS (HUSa) with Fenoldopam; assay type: in vivo, human
[6] = tested on: α2 adrenergic receptors; settings: cited from earlier work
[7] = tested on: 5HT1; settings: cited from earlier work
[8] = tested on: alpha1; settings: cited from earlier work
[9] = molecular target: dopamine receptor D1 (Homo sapiens, UniProt P21728); settings: cited from earlier work
Sequence of dopamine receptor D1 (P21728 whole entry, species assumed): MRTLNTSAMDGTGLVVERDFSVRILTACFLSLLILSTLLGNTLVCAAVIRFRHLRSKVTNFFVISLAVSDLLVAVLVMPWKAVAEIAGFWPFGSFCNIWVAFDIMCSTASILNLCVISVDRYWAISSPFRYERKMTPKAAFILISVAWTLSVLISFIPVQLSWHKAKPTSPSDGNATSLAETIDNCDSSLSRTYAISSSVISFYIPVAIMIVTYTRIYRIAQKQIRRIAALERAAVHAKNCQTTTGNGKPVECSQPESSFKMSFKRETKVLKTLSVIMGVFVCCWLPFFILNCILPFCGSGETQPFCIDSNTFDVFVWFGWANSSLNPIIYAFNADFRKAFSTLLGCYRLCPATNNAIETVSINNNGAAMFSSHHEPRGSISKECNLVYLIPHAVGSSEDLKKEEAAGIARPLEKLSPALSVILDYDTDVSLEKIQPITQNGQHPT

[10] = tested on: 5HT2; settings: cited from earlier work

Sequence of D2 (P14416 whole entry): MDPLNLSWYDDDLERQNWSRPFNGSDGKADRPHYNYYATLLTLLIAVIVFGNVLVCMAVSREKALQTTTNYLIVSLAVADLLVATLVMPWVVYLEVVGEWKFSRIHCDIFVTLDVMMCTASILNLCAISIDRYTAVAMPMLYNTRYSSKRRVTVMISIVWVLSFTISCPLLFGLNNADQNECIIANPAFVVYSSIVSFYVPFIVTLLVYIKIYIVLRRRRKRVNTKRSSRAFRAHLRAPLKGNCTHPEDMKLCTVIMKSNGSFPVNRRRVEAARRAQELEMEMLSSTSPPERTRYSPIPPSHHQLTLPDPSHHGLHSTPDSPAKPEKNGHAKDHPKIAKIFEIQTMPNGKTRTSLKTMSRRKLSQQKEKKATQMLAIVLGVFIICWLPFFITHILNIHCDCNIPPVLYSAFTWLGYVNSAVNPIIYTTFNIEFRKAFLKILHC

## Oc1ccc(C2CNCCc3c2cc(O)c(O)c3Cl)cc1 (stereo not shown) [Fenoldopam, Fenoldopam mesylate]
[1]
  levels of creatininemia versus control groups: lower (compared with group 1) or equivalent (with group 2)
  mean days in dialysis: 0.3 (CI: 0-1.1) days
  neurological effects during the acute phase: None
  permanent kidney or other damage: None
  preservation of kidney function (subjects treated): 10 of the 12
  reduction of the real resistive index, "on" versus "off" therapy: −10.8%
  side effects attributable to treatment: none
  subjects needing dialytic support during the acute phase of the disease: 17%
[2]
  efficacy in acute renal failure: contrasting efficacy results
  side effects in acute renal failure use: without the observation of any side effects
[3]
  affinity for D2 receptors: does not have any affinity
[4]
  affinity for muscarinic receptors: does not have any affinity
[5]; three cases of HUSa initially treated, before anti-CS antibody
  natural course of the disease: less aggressive
[5]; three cases of HUSa, pretreated before anti-CS antibody
  overall outcome after subsequent specific treatment: complete relief without permanent injuries
[6]
  affinity to α2 adrenergic receptors: weak affinity
[7]
  affinity for 5HT1 receptors: does not have any affinity
[8]
  affinity for alpha1 receptors: does not have any affinity
[9]
  activity at dopamine receptor D1: partial agonist
[10]
  affinity for 5HT2 receptors: does not have any affinity

Source: patent publication US20200345747A1, “USE OF […] THE TREATMENT OF HEMOLYTIC UREMIC SYNDROME” (priority 2017, published 2020)
